In patent US10259810B2, “N-sulfonylated pyrazolo[3,4-b]pyridin-6-carboxamides and method of use” (AbbVie S.à.r.l., priority 2015, dated 2019):

Columns and labels:
ΔF508-CFTR [1] = target: T1, ΔF508-CFTR (Homo sapiens, UniProt P13569, DEL508-508); experiment: CFTR cell surface levels using HRP-tagged ΔF508-CFTR expressing CFBE cells, intrinsic corrector capacity; format: cell-based; design: % Activation: concentration or dose not given beside the values; conditions: HRP-tagged ΔF508-CFTR expressing CFBE41o- cells, compound alone (intrinsic corrector capacity), 20 hours at 33° C.; for EC50: read-out: EC50
T1 construct: host or cells: CFBE41o-, doxycycline-inducible
T1 sequence (P13569 with tags, fused parts or gaps DEL508-508): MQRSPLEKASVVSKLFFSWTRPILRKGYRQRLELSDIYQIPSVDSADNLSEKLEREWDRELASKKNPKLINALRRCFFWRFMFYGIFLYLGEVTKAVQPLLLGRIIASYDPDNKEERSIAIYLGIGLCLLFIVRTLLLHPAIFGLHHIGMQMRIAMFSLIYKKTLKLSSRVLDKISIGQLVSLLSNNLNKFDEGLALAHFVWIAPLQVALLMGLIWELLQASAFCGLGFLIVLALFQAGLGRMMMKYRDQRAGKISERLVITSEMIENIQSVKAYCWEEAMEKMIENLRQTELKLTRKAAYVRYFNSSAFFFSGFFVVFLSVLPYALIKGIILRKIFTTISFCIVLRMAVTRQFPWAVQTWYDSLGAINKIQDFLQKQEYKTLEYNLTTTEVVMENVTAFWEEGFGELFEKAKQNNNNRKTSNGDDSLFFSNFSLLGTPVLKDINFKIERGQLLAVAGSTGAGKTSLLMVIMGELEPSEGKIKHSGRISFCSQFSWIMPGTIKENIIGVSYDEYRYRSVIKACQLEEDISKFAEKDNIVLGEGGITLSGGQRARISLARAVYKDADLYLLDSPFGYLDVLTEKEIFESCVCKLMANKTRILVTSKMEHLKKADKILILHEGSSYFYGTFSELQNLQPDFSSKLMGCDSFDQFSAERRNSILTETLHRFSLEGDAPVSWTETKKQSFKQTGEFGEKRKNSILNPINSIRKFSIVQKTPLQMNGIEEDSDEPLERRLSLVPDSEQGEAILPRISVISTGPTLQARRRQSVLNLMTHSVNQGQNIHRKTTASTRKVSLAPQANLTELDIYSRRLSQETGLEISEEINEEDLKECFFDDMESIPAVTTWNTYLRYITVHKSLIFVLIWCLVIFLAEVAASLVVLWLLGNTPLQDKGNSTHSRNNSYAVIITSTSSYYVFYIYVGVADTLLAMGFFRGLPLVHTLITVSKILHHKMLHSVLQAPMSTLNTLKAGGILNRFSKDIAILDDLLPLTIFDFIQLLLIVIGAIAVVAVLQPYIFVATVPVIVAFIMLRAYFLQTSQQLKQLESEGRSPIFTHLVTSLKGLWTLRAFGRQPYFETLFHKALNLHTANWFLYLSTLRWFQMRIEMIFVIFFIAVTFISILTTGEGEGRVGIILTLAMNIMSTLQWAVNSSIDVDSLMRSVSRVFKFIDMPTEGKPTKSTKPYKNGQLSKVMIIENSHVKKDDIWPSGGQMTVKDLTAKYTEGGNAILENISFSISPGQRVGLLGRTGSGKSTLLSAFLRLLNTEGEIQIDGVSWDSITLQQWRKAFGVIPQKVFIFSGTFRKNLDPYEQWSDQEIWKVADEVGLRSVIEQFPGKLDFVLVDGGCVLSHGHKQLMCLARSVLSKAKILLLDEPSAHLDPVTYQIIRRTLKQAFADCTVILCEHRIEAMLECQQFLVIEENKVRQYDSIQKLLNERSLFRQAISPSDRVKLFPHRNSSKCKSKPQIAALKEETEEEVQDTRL
Summary of the method: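 Surface ΔF508-CFTR was measured as HRP chemiluminescence from an extracellular-loop-4 tag, expressed as percent activity between DMSO and a […] corrector control.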

ΔF508-CFTR [2] = target: T1, ΔF508-CFTR; experiment: CFTR cell surface levels using HRP-tagged ΔF508-CFTR expressing CFBE cells, in the presence of a co-corrector; format: cell-based; conditions: HRP-tagged ΔF508-CFTR CFBE cells, in the presence of 3 μM co-corrector; for EC50: read-out: EC50
Summary of the method: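 Chemiluminescent read-out of surface HRP (15 min, dark) after PBS washes. Activity is normalized as 100×(sample−DMSO)/(3 μM co-corrector alone−DMSO).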

## CN(C)S(=O)(=O)NC(=O)c1cc(N2CCC(N3CCOCC3)CC2)c2c(C3CCC3)nn(-c3cccc(C(F)(F)F)c3)c2n1 [Compound 513, 3-cyclobutyl-N-(dimethylsulfamoyl)-4-[4-(morpholin-4-yl)piperidin-1-yl]-1-[3-(trifluoromethyl)phenyl]-1H-pyrazolo[3,4-b]pyridine-6-carboxamide]
ΔF508-CFTR [1]
  % Activation: 278.5%
  EC50: 101 nM
ΔF508-CFTR [2]
  % Activation: 476.3%
  EC50: 66.7 nM

## Cc1cc(-n2nc(C3CCC3)c3c(N4CCC(N5CCOCC5)CC4)cc(C(=O)NS(C)(=O)=O)nc32)ccc1F [Compound 514, 3-cyclobutyl-1-(4-fluoro-3-methylphenyl)-N-(methanesulfonyl)-4-[4-(morpholin-4-yl)piperidin-1-yl]-1H-pyrazolo[3,4-b]pyridine-6-carboxamide]
ΔF508-CFTR [1]
  % Activation: 301.4%
  EC50: 150 nM
ΔF508-CFTR [2]
  % Activation: 540.3%
  EC50: 97.1 nM

## CS(=O)(=O)NC(=O)c1cc(N2CCC(N3CCOCC3)CC2)c2c(C3CCC3)nn(-c3cccc(F)c3)c2n1 [Compound 515, 3-cyclobutyl-1-(3-fluorophenyl)-N-(methanesulfonyl)-4-[4-(morpholin-4-yl)piperidin-1-yl]-1H-pyrazolo[3,4-b]pyridine-6-carboxamide]
ΔF508-CFTR [1]
  % Activation: 287.1%
  EC50: 179 nM
ΔF508-CFTR [2]
  % Activation: 479.2%
  EC50: 52.9 nM

## CS(=O)(=O)NC(=O)c1cc(N2CCC(N3CCOCC3)CC2)c2c(C3CCC3)nn(-c3cccc(C(F)(F)F)c3)c2n1 [Compound 516, 3-cyclobutyl-N-(methanesulfonyl)-4-[4-(morpholin-4-yl)piperidin-1-yl]-1-[3-(trifluoromethyl)phenyl]-1H-pyrazolo[3,4-b]pyridine-6-carboxamide]
ΔF508-CFTR [1]
  % Activation: 322.7%
  EC50: 120 nM
ΔF508-CFTR [2]
  % Activation: 545.3%
  EC50: 56.6 nM

## CNS(=O)(=O)NC(=O)c1cc(N2CCC(N3CCOCC3)CC2)c2c(C3CCC3)nn(-c3ccc(F)cc3)c2n1 [Compound 517, 3-cyclobutyl-1-(4-fluorophenyl)-N-(methylsulfamoyl)-4-[4-(morpholin-4-yl)piperidin-1-yl]-1H-pyrazolo[3,4-b]pyridine-6-carboxamide]
ΔF508-CFTR [1]
  % Activation: 320.5%
  EC50: 184 nM
ΔF508-CFTR [2]
  % Activation: 520.08%
  EC50: 75.8 nM

## CN1CCN(Cc2cc(C(=O)NS(C)(=O)=O)nc3c2c(C2CCC2)nn3-c2ccc(F)cc2)CC1 [Compound 518, 3-cyclobutyl-1-(4-fluorophenyl)-N-(methanesulfonyl)-4-[(4-methylpiperazin-1-yl)methyl]-1H-pyrazolo[3,4-b]pyridine-6-carboxamide]
ΔF508-CFTR [1]
  % Activation: 35.86%
ΔF508-CFTR [2]
  % Activation: 189.55%
  EC50: 3130 nM

## CS(=O)(=O)NC(=O)c1cc(CN2CCOCC2)c2c(C3CCC3)nn(-c3ccc(F)cc3)c2n1 [Compound 519, 3-cyclobutyl-1-(4-fluorophenyl)-N-(methanesulfonyl)-4-[(morpholin-4-yl)methyl]-1H-pyrazolo[3,4-b]pyridine-6-carboxamide]
ΔF508-CFTR [1]
  % Activation: 114.4%
  EC50: 3330 nM
ΔF508-CFTR [2]
  % Activation: 252.3%
  EC50: 1020 nM

## CN(C)S(=O)(=O)NC(=O)c1cc(CN2CCOCC2)c2c(C3CCC3)nn(-c3ccc(F)cc3)c2n1 [Compound 520, 3-cyclobutyl-N-(dimethylsulfamoyl)-1-(4-fluorophenyl)-4-[(morpholin-4-yl)methyl]-1H-pyrazolo[3,4-b]pyridine-6-carboxamide]
ΔF508-CFTR [1]
  % Activation: 60%
  EC50: 1060 nM
ΔF508-CFTR [2]
  % Activation: 207.1%
  EC50: 924 nM

## COCC1CCN(Cc2cc(C(=O)NS(=O)(=O)N(C)C)nc3c2c(C2CCC2)nn3-c2ccc(F)cc2)CC1 [Compound 521, 3-cyclobutyl-N-(dimethylsulfamoyl)-1-(4-fluorophenyl)-4-{[4-(methoxymethyl)piperidin-1-yl]methyl}-1H-pyrazolo[3,4-b]pyridine-6-carboxamide]
ΔF508-CFTR [1]
  % Activation: 31.93%
ΔF508-CFTR [2]
  % Activation: 217.3%
  EC50: 712 nM

## COC1CCN(C2CCN(c3cc(C(=O)NS(=O)(=O)N(C)C)nc4c3c(C3CCC3)nn4-c3ccc(F)cc3)CC2)C1 (stereo not drawn) [Compound 524, 3-cyclobutyl-N-(dimethylsulfamoyl)-1-(4-fluorophenyl)-4-[4-(3-methoxypyrrolidin-1-yl)piperidin-1-yl]-1H-pyrazolo[3,4-b]pyridine-6-carboxamide]
ΔF508-CFTR [1]
  % Activation: 209.35%
  EC50: 525 nM
ΔF508-CFTR [2]
  % Activation: 398.75%
  EC50: 308 nM

## CN(C1CCOCC1)C1CCN(c2cc(C(=O)NS(=O)(=O)N(C)C)nc3c2c(C2CCC2)nn3-c2ccc(F)cc2)CC1 [Compound 528, 3-cyclobutyl-N-(dimethylsulfamoyl)-1-(4-fluorophenyl)-4-{4-[methyl(oxan-4-yl)amino]piperidin-1-yl}-1H-pyrazolo[3,4-b]pyridine-6-carboxamide]
ΔF508-CFTR [1]
  % Activation: 185.8%
  EC50: 859 nM
ΔF508-CFTR [2]
  % Activation: 357.9%
  EC50: 834 nM

## COCC1CCN(c2cc(C(=O)NS(=O)(=O)N(C)C)nc3c2c(C2CCC2)nn3-c2ccnc(C3CCOCC3)c2)CC1 [Compound 531, 3-cyclobutyl-N-(dimethylsulfamoyl)-4-[4-(methoxymethyl)piperidin-1-yl]-1-[2-(oxan-4-yl)pyridin-4-yl]-1H-pyrazolo[3,4-b]pyridine-6-carboxamide]
ΔF508-CFTR [1]
  % Activation: 182.8%
  EC50: 234 nM
ΔF508-CFTR [2]
  % Activation: 349.65%
  EC50: 63.5 nM

## CN(C)S(=O)(=O)NC(=O)c1cc(N2CCC(N3CC4CC3CO4)CC2)c2c(C3CCC3)nn(-c3ccc(F)cc3)c2n1 (stereo not drawn) [Compound 532, 3-cyclobutyl-N-(dimethylsulfamoyl)-1-(4-fluorophenyl)-4-[4-(2-oxa-5-azabicyclo[2.2.1]heptan-5-yl)piperidin-1-yl]-1H-pyrazolo[3,4-b]pyridine-6-carboxamide]
ΔF508-CFTR [1]
  % Activation: 151.95%
  EC50: 521 nM
ΔF508-CFTR [2]
  % Activation: 342.83%
  EC50: 473 nM

## CN(C)S(=O)(=O)NC(=O)c1cc(N2CCC3(CC2)CC(N2CCOCC2)CO3)c2c(C3CCC3)nn(-c3ccc(F)cc3)c2n1 (stereo not drawn) [Compound 533, 3-cyclobutyl-N-(dimethylsulfamoyl)-1-(4-fluorophenyl)-4-[3-(morpholin-4-yl)-1-oxa-8-azaspiro[4.5]decan-8-yl]-1H-pyrazolo[3,4-b]pyridine-6-carboxamide]
ΔF508-CFTR [1]
  % Activation: 156.3%
  EC50: 222 nM
ΔF508-CFTR [2]
  % Activation: 322.45%
  EC50: 221 nM

## CC(C)Oc1nn(C2CCCCC2)c2nc(C(=O)NS(=O)(=O)N(C)C)cc(-c3ccc(N4CCN(C(C)C)CC4)cc3)c12 [Compound 534, 1-cyclohexyl-N-(dimethylsulfamoyl)-3-[(propan-2-yl)oxy]-4-{4-[4-(propan-2-yl)piperazin-1-yl]phenyl}-1H-pyrazolo[3,4-b]pyridine-6-carboxamide]
ΔF508-CFTR [1]
  % Activation: 105%
  EC50: 241 nM
ΔF508-CFTR [2]
  % Activation: 289.35%
  EC50: 344 nM

## CN(C)S(=O)(=O)NC(=O)c1cc(-c2ccc(N3CCN(C4CC4)CC3)nc2)c2c(C3CCC3)nn(C3CCCCC3)c2n1 [Compound 536, 3-cyclobutyl-1-cyclohexyl-4-[6-(4-cyclopropylpiperazin-1-yl)pyridin-3-yl]-N-(dimethylsulfamoyl)-1H-pyrazolo[3,4-b]pyridine-6-carboxamide]
ΔF508-CFTR [1]
  % Activation: 125.1%
  EC50: 225 nM
ΔF508-CFTR [2]
  % Activation: 341.15%
  EC50: 280 nM

## COC1CCN(S(=O)(=O)NC(=O)c2cc(N3CCC(N4CCOCC4)CC3)c3c(C4CCC4)nn(-c4ccc(F)cc4)c3n2)C1 (stereo not drawn) [Compound 538, 3-cyclobutyl-1-(4-fluorophenyl)-N-(3-methoxypyrrolidine-1-sulfonyl)-4-[4-(morpholin-4-yl)piperidin-1-yl]-1H-pyrazolo[3,4-b]pyridine-6-carboxamide]
ΔF508-CFTR [1]
  % Activation: 228.9%
  EC50: 2070 nM
ΔF508-CFTR [2]
  % Activation: 427.95%
  EC50: 358 nM

## CN(C)S(=O)(=O)NC(=O)c1cc(-c2ccc(N3CCC(C#N)CC3)nc2)c2c(C3CCC3)nn(-c3ccccc3)c2n1 [Compound 539, 4-[6-(4-cyanopiperidin-1-yl)pyridin-3-yl]-3-cyclobutyl-N-(dimethylsulfamoyl)-1-phenyl-1H-pyrazolo[3,4-b]pyridine-6-carboxamide]
ΔF508-CFTR [1]
  % Activation: 234.5%
  EC50: 71.7 nM
ΔF508-CFTR [2]
  % Activation: 429.3%
  EC50: 38.6 nM

## COCC1CCN(S(=O)(=O)NC(=O)c2cc(N3CCC(N4CCOCC4)CC3)c3c(C4CCC4)nn(-c4ccc(F)cc4)c3n2)CC1 [Compound 540, 3-cyclobutyl-1-(4-fluorophenyl)-N-[4-(methoxymethyl)piperidine-1-sulfonyl]-4-[4-(morpholin-4-yl)piperidin-1-yl]-1H-pyrazolo[3,4-b]pyridine-6-carboxamide]
ΔF508-CFTR [1]
  % Activation: 248.8%
  EC50: 123 nM
ΔF508-CFTR [2]
  % Activation: 443.3%
  EC50: 103 nM

## CC(C)N1CCN(c2ccc(-c3cc(C(=O)NS(=O)(=O)N(C)C)nc4c3c(C3CCC3)nn4C3CCCCC3)cn2)CC1 [Compound 542, 3-cyclobutyl-1-cyclohexyl-N-(dimethylsulfamoyl)-4-{6-[4-(propan-2-yl)piperazin-1-yl]pyridin-3-yl}-1H-pyrazolo[3,4-b]pyridine-6-carboxamide]
ΔF508-CFTR [1]
  % Activation: 153.2%
  EC50: 267 nM
ΔF508-CFTR [2]
  % Activation: 320.3%
  EC50: 216 nM
